Structures are written as SMILES. Some results are limits rather than exact numbers.

The assay has as its target Aldo-keto reductase family 1 member B1 (Rattus norvegicus, UniProt P07943). The assay is described as follows: Inhibitory concentration against aldose reductase obtained from rat lens.
As to `O=C(O)CN(c1cccc([N+](=O)[O-])c1)S(=O)(=O)c1ccccc1`, the IC50 (usually the concentration that inhibits the measured activity by half) was 8.7 µM.
In turn, `COc1ccc(S(=O)(=O)N(CC(=O)O)c2ccccc2)cc1` returned a half-maximal inhibitory concentration (IC50) of 1.8 µM.
`Cc1ccc(S(=O)(=O)Nc2ccccc2C(=O)O)cc1` yielded an IC50 of 69 µM.
On to `O=C(O)[C@H](NS(=O)(=O)c1ccccc1)c1ccccc1`, for which the IC50 is 460 µM.
Under `O=C(O)CN(c1ccccc1)S(=O)(=O)c1ccc(NC(=O)c2ccccc2)cc1` stands 0.38 µM; under `CN(c1ccccc1C(=O)O)S(=O)(=O)c1ccc2ccccc2c1`, 400 µM.
Compound `COc1ccc(S(=O)(=O)N(C)c2ccccc2C(=O)O)cc1` gave an IC50 of over 2000 µM.
Then `O=C(O)CN(c1ccccc1)S(=O)(=O)c1ccc2ccccc2c1`, with 4.5 µM; and `Cc1ccc(S(=O)(=O)N(CC(=O)O)c2ccccc2)cc1`, with 14 µM.
Compound `O=C(O)[C@@H](NS(=O)(=O)c1ccc(Cl)cc1)c1ccccc1` displayed a half-inhibitory concentration (IC50) of 7.1 µM.
In turn, `O=C(O)[C@H](NS(=O)(=O)c1ccc(F)cc1)c1ccccc1` displayed an IC50 of 960 µM. This IC50 is about 140-fold higher than that of the compound before.
`COc1ccc(S(=O)(=O)N[C@H](C(=O)O)c2ccccc2)cc1` displayed an IC50 of 13 µM.
Under `O=C(O)c1ccccc1NS(=O)(=O)c1ccccc1` stands 65 µM.
For the compound `O=C(O)CN(c1ccccc1)S(=O)(=O)c1ccc(Cl)cc1`, the 50% inhibitory concentration (IC50) is 16 µM.
Under `O=C(O)CN(c1ccc(F)cc1)S(=O)(=O)c1ccccc1` stands 22 µM; under `O=C(O)[C@H](NS(=O)(=O)c1ccc(Cl)cc1)c1ccccc1`, 340 µM.
Consider `O=C(O)CNS(=O)(=O)c1ccccc1`, for which the IC50 amounted to 130 µM.
Regarding `O=C(O)CN(c1ccc(Cl)cc1)S(=O)(=O)c1ccccc1`, the IC50 was 27 µM. This IC50 is about 4.8-fold lower than that of the compound before.
Under `O=C(O)c1ccccc1NS(=O)(=O)c1ccc([N+](=O)[O-])cc1` stands 390 µM.
With `Cc1ccc(S(=O)(=O)N[C@H](C(=O)O)c2ccccc2)cc1`, 8.9 µM corresponded to half-maximal inhibition (IC50). This IC50 is about 44-fold lower than that of the compound before.
Then `O=C(O)c1ccccc1NS(=O)(=O)c1ccc(Br)cc1`, with 85 µM; and `O=C(O)CNS(=O)(=O)c1ccc(F)cc1`, with 43 µM.
Regarding `Nc1ccc(N(CC(=O)O)S(=O)(=O)c2ccccc2)cc1`, inhibition was half-maximal at 68 µM (IC50).
Under `Nc1ccccc1S(=O)(=O)N(CC(=O)O)c1ccccc1` stands 67 µM.
Then `COc1ccc(S(=O)(=O)Nc2ccccc2C(=O)O)cc1`, with 130 µM; and `O=C(O)CNS(=O)(=O)c1ccc(Cl)cc1`, with 130 µM.
Then `O=C(O)CN(c1ccccc1)S(=O)(=O)c1ccc([N+](=O)[O-])cc1`, with 4.4 µM.
Take `O=C(O)[C@@H](NS(=O)(=O)c1ccc([N+](=O)[O-])cc1)c1ccccc1`: half-maximal inhibition (IC50) required 8.6 µM.
Compound `O=C(O)c1ccccc1NS(=O)(=O)c1cccc2ccccc12` showed an IC50 of 8.3 µM. This IC50 and that of the compound before are within 1.5-fold of each other.
Consider `O=C(O)CN(c1ccccc1)S(=O)(=O)c1ccc(F)cc1`, for which the IC50 turned out to be 26 µM.
Then `Nc1ccc(S(=O)(=O)N(CC(=O)O)c2ccccc2)cc1`, with 9.3 µM; and `Nc1cccc(S(=O)(=O)N(CC(=O)O)c2ccccc2)c1`, with 27 µM; and `COc1ccc(S(=O)(=O)N[C@@H](C(=O)O)c2ccccc2)cc1`, with 36 µM.
Under `Cc1cccc(N(CC(=O)O)S(=O)(=O)c2ccccc2)c1` stands 27 µM.
Then `O=C(O)[C@H](NS(=O)(=O)c1ccc([N+](=O)[O-])cc1)c1ccccc1`, with 980 µM; and `O=C(O)[C@@H](NS(=O)(=O)c1ccccc1)c1ccccc1`, with 11 µM; and `O=C(O)[C@@H](NS(=O)(=O)c1ccc(F)cc1)c1ccccc1`, with 25 µM.
In turn, `O=C(O)C(NS(=O)(=O)c1ccc2ccccc2c1)c1ccccc1` (single isomer, unassigned; 6m) came in with an IC50 of 230 µM.
Regarding `Cc1ccccc1N(CC(=O)O)S(=O)(=O)c1ccccc1`, the IC50 was 340 µM. This IC50 and that of the compound before are within 1.5-fold of each other.
`O=C(O)CN(c1ccccc1)S(=O)(=O)c1ccccc1[N+](=O)[O-]` showed an IC50 of 3.6 µM.
Then `Cc1ccc(S(=O)(=O)NCC(=O)O)cc1`, with 32 µM.
`COc1ccc(S(=O)(=O)NCC(=O)O)cc1`: the half-inhibitory concentration (IC50) was found to be 31 µM. This IC50 and that of the compound before are within 1.5-fold of each other.
`O=C(O)CNS(=O)(=O)c1ccccc1[N+](=O)[O-]`: the midpoint of inhibition, the IC50, lay at 13 µM.
With `Nc1ccc(S(=O)(=O)Nc2ccccc2C(=O)O)cc1`, the IC50 amounted to 7.9 µM.
In turn, `O=C(O)CNS(=O)(=O)c1ccc(NC(=O)c2ccccc2)cc1` came in with an IC50 of 0.88 µM.
`COc1ccc(N(CC(=O)O)S(=O)(=O)c2ccccc2)cc1` had an IC50 of 38 µM.
The compound `CN(c1ccccc1C(=O)O)S(=O)(=O)c1ccc([N+](=O)[O-])cc1` registered an IC50 of over 2000 µM.
Then `O=C(O)CN(c1ccccc1Cl)S(=O)(=O)c1ccccc1`, with 7.6 µM.
Under `O=C(O)CN(c1ccccc1)S(=O)(=O)c1cccc([N+](=O)[O-])c1` stands 1.3 µM.
Compound `O=C(O)CNS(=O)(=O)c1ccc([N+](=O)[O-])cc1` registered a concentration for half-maximal inhibition (IC50) of 79 µM.
Under `O=C(O)CNS(=O)(=O)c1ccc2ccccc2c1` stands 0.4 µM; under `Cc1ccc(S(=O)(=O)N[C@@H](C(=O)O)c2ccccc2)cc1`, 90 µM.
Under `O=C(O)c1ccccc1NS(=O)(=O)c1ccc(Cl)cc1` stands 130 µM; under `O=C(O)C(NS(=O)(=O)c1ccc2ccccc2c1)c1ccccc1` (single isomer, unassigned; 6n), 2.5 µM.
Then `O=C(O)CN(c1ccccc1)S(=O)(=O)c1ccccc1`, with 29 µM; and `Nc1ccccc1S(=O)(=O)NCC(=O)O`, with 37 µM.
For `O=C(O)CN(c1cccc(Cl)c1)S(=O)(=O)c1ccccc1`, the midpoint of inhibition, the IC50, lay at 13 µM. Compared with the last compound, the IC50 is about 2.8-fold lower.
Under `Cc1ccc(N(CC(=O)O)S(=O)(=O)c2ccccc2)cc1` stands 26 µM.
`O=C(O)c1ccccc1NS(=O)(=O)c1ccc2ccccc2c1` registered an IC50 of 5.7 µM.

For the origin of these results see ChEMBL document CHEMBL1124315, “N- and 2-substituted N-(phenylsulfonyl)glycines as inhibitors of rat lens aldose reductase” (J Med Chem, 1989).
